The text below walks through data of US20120270807A1, “MACROCYCLIC INHIBITORS OF SERINE PROTEASE ENZYMES” (priority 2009, published 2012).

The assay addresses human matriptase (Homo sapiens, UniProt Q9Y5Y6). Briefly: Assay for inhibition of matriptase (fluorogenic substrate Boc-Gln-Ala-Arg-AMC). The class given is biochemical. The settings on record: residual matriptase activity in presence of test compound; hydrolysis of Boc-Gln-Ala-Arg-AMC; 10 μM for initial screening per method. From the text: The following describes an assay for matriptase as a representative serine protease and is based upon reported methods. (Désilets, A.; Longpré, J.-M.; Beaulieu, M.-E.; Leduc, R. FEBS Lett. 2006, 580, 2227-2232.) Similar assays are applicable and available for other serine proteases.
Enzyme activities were monitored by measuring the release of fluorescence from AMC-coupled peptides (excitation, 360 nm; emission, 441 nm) in a FLX-800 TBE microplate reader (Bio-Tek Instruments, Winooski, Vt., USA). The purified human matriptase was active site titrated with the burst titrant 4-methylumbelliferyl-p-guanidino benzoate (MUGB). Enzymatic assays with matriptase were performed in Tris-HCl 100 mM containing 500 µg/mL BSA at pH 9. Human soluble furin was expressed, purified, titrated and assayed as described in the literature (Denault, J. B.; Lazure, C.; Day, R; Leduc, R. Protein Expr. Purif. 2000, 19, 113-124.) The purified HAT protein was active-site titrated with MUGB. Assays with HAT were performed in 50 mM Tris-HCl at pH 8.6.
Enzymes were diluted to concentrations ranging from 4 to 12.5 nM for furin, from 2 to 7 nM for matriptase and 20 pM for HAT and incubated with either 10 μM (for initial screening) […] or appropriate dilutions (for kinetic analysis), for example 0, 500, 1000, 2000 nM or 0, 250, 500, 1000, 2500, 5000 nM, of the test compound for 15 min at RT. Residual enzyme activity was measured by following the hydrolysis of a fluorogenic substrate (4 μM Boc-Arg-Val-Arg-Arg-AMC for furin, Boc-Gln-Ala-Arg-AMC for matriptase and 4 μM Boc-Val-Pro-Arg-AMC for HAT) (Bachem Bioscience, King of Prussia, Pa., USA). Saturation curves were performed in the presence of increasing concentrations of test compounds. Data from three independent experiments or more were typically averaged and residual velocities were plotted as a function of test compound concentration. Data were fitted by non-linear regression analysis to Equation (1) (Bieth, J. G. Methods Enzymol. 1995, 248, 59-84.) using the Enzfitter software (Biosoft, Ferguson, Mo., USA).
vi/v0=1−{([E]0+[I]0+Ki(app))−(([E]0+[I]0+Ki(app))^2−4[E]0[I]0)^1/2}/2[E]0 Equation (1): […]
where v0 and vi are the steady-state rates of substrate hydrolysis in the absence and presence of inhibitor, respectively, [E]0, the initial concentration of enzyme, [I]0, the initial concentration of inhibitor and Ki(app) the substrate-dependent equilibrium dissociation constant. The substrate-independent constant Ki was calculated using Equation (2) (Bieth, J. G. Methods Enzymol. 1995, 248, 59-84.),
Ki=Ki(app)(1+[S]0/Km) Equation (2): […]
The table presents results for matriptase inhibition for representative compounds of the invention.
Ki's can be calculated from the velocity using nonlinear regression analysis. The model used is a competitive enzyme inhibition equation where KmObs=Km*(1+[I]/Ki) and Y=Vmax*X/(KmObs+X). X is the substrate concentration. Y the velocity.

Chain of human matriptase (Q9Y5Y6 615-855 limits assumed, other chains not shown): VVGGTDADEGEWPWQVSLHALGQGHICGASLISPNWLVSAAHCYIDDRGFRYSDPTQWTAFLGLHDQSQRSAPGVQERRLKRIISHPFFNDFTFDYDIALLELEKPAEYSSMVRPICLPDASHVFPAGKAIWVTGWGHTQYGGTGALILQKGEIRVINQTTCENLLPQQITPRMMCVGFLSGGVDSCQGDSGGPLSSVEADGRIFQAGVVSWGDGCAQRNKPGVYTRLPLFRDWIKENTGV

Take `C[C@@H]1CN[C@@H](C2CC2)C(=O)N(C)[C@H](C)C(=O)N[C@H](Cc2ccc(C(=N)N)cc2)C(=O)NCCCc2ccccc2O1` [Compound 459]: the “Velocity (FU/min)” value amounted to 140 FU/min.
Next, `C[C@@H]1NCCOc2cc(F)ccc2CCCNC(=O)[C@@H](Cc2ccc(C(=N)N)cc2)NC(=O)[C@@H](C)N(C)C1=O` [Compound 467]: 2300 FU/min; `C[C@@H]1C(=O)N[C@H](Cc2ccc(C(=N)N)cc2)C(=O)NC/C=C/c2cccc(c2)OCCN[C@@H](C2CC2)C(=O)N1C` [Compound 482]: 2500 FU/min.
For the compound `C[C@@H]1C(=O)N[C@H](CCCN)C(=O)NCCCc2ccc(F)cc2OCCN[C@@H](C2CC2)C(=O)N1C` [Compound 487], the “Velocity (FU/min)” value is listed as 2500 FU/min.
As to `C[C@@H]1C(=O)N[C@H](Cc2c[nH]cn2)C(=O)NCCCc2ccc(F)cc2OCCN[C@@H](C2CC2)C(=O)N1C` [Compound 493], the “Velocity (FU/min)” value stood at 2700 FU/min.
Next, `C[C@@H]1C(=O)N[C@H](Cc2ccncc2)C(=O)NCCCc2ccc(F)cc2OCCN[C@@H](C2CC2)C(=O)N1C` [Compound 495]: 2700 FU/min; `C[C@@H]1C(=O)N[C@H](Cc2cscn2)C(=O)NCCCc2ccc(F)cc2OCCN[C@@H](C2CC2)C(=O)N1C` [Compound 496]: 2700 FU/min; `C[C@@H]1CN[C@@H](C2CC2)C(=O)N(C)[C@H](C)C(=O)N[C@H](Cc2ccc(C(N)=O)cc2)C(=O)NCCCc2ccccc2O1` [Compound 498]: 580 FU/min.
